The source of these data is PubChem BioAssay (NCI).

Some test systems named below: HT29 colon; SF-295 CNS; A498 renal; TK-10 renal; SK-MEL-2 melanoma; CAKI-1 renal; SNB-19 CNS; MCF7 breast; SF-268 CNS; HL-60(TB) leukemia.
Test in all cases: DTP human tumour cell line panel, 48 h

Where “and” joins values, the source holds several entries; their conditions need not be identical. Equal entries are not always repeated.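 Test compounds were applied to cells in 96-well plates for 48 hours at 5 doses. Here, GI50 denotes the concentration required for 50% inhibition of growth. TGI: concentration producing complete growth inhibition.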

For `C(=N\Nc1ccc2ccccc2n1)/c1ccccn1`, the GI50 in the experiment with HT29 colon is 536 nM; with SF-295 CNS it was 348 nM; with A498 renal, 561 nM; with TK-10 renal it was 375 nM; in the experiment with SK-MEL-2 melanoma, 511 nM; with CAKI-1 renal it was 257 nM. In addition, the GI50 was 921 nM in the experiment with SNB-19 CNS, 440 nM with MCF7 breast, 410 nM in the experiment with SF-268 CNS and 279 nM with HL-60(TB) leukemia. The TGI with HT29 colon was above 40600 nM; in the experiment with SF-295 CNS, 12900 nM; in the experiment with A498 renal, 15400 nM; with TK-10 renal, above 100000 nM; in the experiment with SK-MEL-2 melanoma it was above 100000 nM; in the experiment on CAKI-1 renal it was 763 nM. Besides, the TGI in the experiment with SNB-19 CNS was above 100000 nM; in the experiment on MCF7 breast it was above 100000 nM; in the experiment with SF-268 CNS it was above 33500 nM; in the experiment with HL-60(TB) leukemia, 2300 nM.

Turning to `Fc1ccc(Nc2nc(Nc3ccc(-c4nc5ccccc5[nH]4)cc3)c3cn[nH]c3n2)cc1`, the GI50 in the experiment with HT29 colon was 1930 nM; with SF-295 CNS, 1870 nM; in the experiment with A498 renal, 14600 nM; in the experiment with TK-10 renal, 2290 nM; with SK-MEL-2 melanoma, 2110 nM; with CAKI-1 renal, 1970 nM. Also, the GI50 in the experiment with SNB-19 CNS is 3160 nM; in the experiment with MCF7 breast, 1740 nM; in the experiment on SF-268 CNS, 2110 nM; with HL-60(TB) leukemia, 2960 nM. The TGI stood at 4000 nM with HT29 colon; 4080 nM with SF-295 CNS; 27700 nM in the experiment on A498 renal; 5290 nM in the experiment on TK-10 renal; 4950 nM with SK-MEL-2 melanoma; 5410 nM with CAKI-1 renal. Moreover, the TGI with SNB-19 CNS was found to be 9610 nM; in the experiment on MCF7 breast, 4120 nM; in the experiment with SF-268 CNS, 5400 nM; in the experiment on HL-60(TB) leukemia, 6920 nM.

As to `NS(=O)(=O)c1ccc(N=Nc2c[nH]c(=O)c(O)c2)cc1`, the TGI in the experiment with HT29 colon, in the experiment on SF-295 CNS, in the experiment on A498 renal, with TK-10 renal, with SK-MEL-2 melanoma and in the experiment on CAKI-1 renal was above 100000 nM each time. Besides, the TGI with SNB-19 CNS, in the experiment on MCF7 breast, with SF-268 CNS and in the experiment with HL-60(TB) leukemia was above 100000 nM throughout.

On to `CNc1cc(-c2cccc(OC(F)(F)F)c2)nc2ccc(N3CCCC3)cc12`, for which the GI50 in the experiment with HT29 colon is 1310 nM and 1610 nM and 1540 nM; in the experiment with SF-295 CNS, 1610 nM and 1750 nM and 1680 nM; with A498 renal, 1170 nM and 1610 nM and 1660 nM; in the experiment with TK-10 renal, 1940 nM and 1780 nM and 1800 nM; in the experiment on SK-MEL-2 melanoma, 1720 nM and 1690 nM and 1770 nM; in the experiment with CAKI-1 renal, 1570 nM and 1530 nM and 1600 nM. Further, the GI50 with SNB-19 CNS was 1900 nM and 1810 nM and 1880 nM; with MCF7 breast, 1220 nM and 1650 nM and 1750 nM; in the experiment on SF-268 CNS it was 1940 nM and 1880 nM and 1870 nM; in the experiment with HL-60(TB) leukemia it was 2120 nM and 1960 nM and 1950 nM. In addition, the TGI in the experiment with HT29 colon is 2690 nM and 3060 nM and 3010 nM; with SF-295 CNS, 2980 nM and 3200 nM and 3090 nM; in the experiment with A498 renal, 2410 nM and 3000 nM and 3080 nM; in the experiment on TK-10 renal it was 3390 nM and 3200 nM and 3240 nM; in the experiment on SK-MEL-2 melanoma, 3190 nM and 3170 nM and 3230 nM; with CAKI-1 renal it was 2910 nM and 2880 nM and 2970 nM. In addition, the TGI is 3570 nM and 3220 nM and 3360 nM in the experiment on SNB-19 CNS; 2880 nM and 3320 nM and 3620 nM in the experiment on MCF7 breast; 3510 nM and 3770 nM in the experiment on SF-268 CNS; 4650 nM and 4940 nM and 4280 nM in the experiment on HL-60(TB) leukemia.

As for `Oc1[nH]c2ccccc2c1C=Nc1ccc(-n2cncn2)cc1`, the GI50 in the experiment with HT29 colon is above 23100 nM; in the experiment with SF-295 CNS, above 25000 nM; in the experiment on A498 renal it was above 16700 nM; in the experiment on TK-10 renal, above 17100 nM; in the experiment with SK-MEL-2 melanoma it was above 25000 nM; in the experiment with CAKI-1 renal it was above 22700 nM. Also, the GI50 in the experiment with SNB-19 CNS was above 25000 nM; with MCF7 breast, above 25000 nM; in the experiment with SF-268 CNS it was above 24100 nM; with HL-60(TB) leukemia it was 12900 nM. Besides, the TGI with HT29 colon, in the experiment on SF-295 CNS, in the experiment on A498 renal, in the experiment with TK-10 renal, with SK-MEL-2 melanoma and in the experiment on CAKI-1 renal was above 25000 nM each time. Besides, the TGI in the experiment with SNB-19 CNS, with MCF7 breast, in the experiment on SF-268 CNS and in the experiment with HL-60(TB) leukemia was above 25000 nM throughout.

On to `COc1cc(-c2ccc[nH]2)[nH]c1/C=C1\N=C(C)C(CC(=O)OCC(C)(C)C)=C1C`, for which the GI50 with HT29 colon is 172 nM; with SF-295 CNS it was 171 nM; with A498 renal, 163 nM; with TK-10 renal, 326 nM; in the experiment on SK-MEL-2 melanoma, 157 nM; in the experiment with CAKI-1 renal, 263 nM. The GI50 in the experiment with SNB-19 CNS is 468 nM; in the experiment with MCF7 breast, 175 nM; in the experiment with SF-268 CNS it was 288 nM; in the experiment on HL-60(TB) leukemia, 239 nM. Further, the TGI with HT29 colon is 1170 nM; with SF-295 CNS it was 510 nM; in the experiment with A498 renal, 867 nM; in the experiment with TK-10 renal it was 1190 nM; in the experiment with SK-MEL-2 melanoma, 415 nM; in the experiment with CAKI-1 renal, 1130 nM. Further, the TGI came out at 2510 nM with SNB-19 CNS, 1250 nM in the experiment with MCF7 breast, 1840 nM with SF-268 CNS and 801 nM in the experiment on HL-60(TB) leukemia.

Consider `CCCCCCCCN=C(NCCCCCCCC)SCc1cccc2ccccc12`, for which the GI50 is 839 nM in the experiment on HT29 colon; 1510 nM with SF-295 CNS; 1520 nM with A498 renal; 1740 nM with TK-10 renal; 2140 nM with SK-MEL-2 melanoma; 1560 nM in the experiment with CAKI-1 renal. Also, the GI50 with SNB-19 CNS is 1830 nM; in the experiment on MCF7 breast it was 1340 nM; in the experiment with SF-268 CNS, 1830 nM; in the experiment on HL-60(TB) leukemia it was 1230 nM. In addition, the TGI turned out to be 2160 nM with HT29 colon; 3020 nM with SF-295 CNS; 2900 nM with A498 renal; 3200 nM with TK-10 renal; 3770 nM in the experiment with SK-MEL-2 melanoma; 2970 nM in the experiment on CAKI-1 renal. In addition, the TGI with SNB-19 CNS was determined as 3450 nM; in the experiment with MCF7 breast, 2800 nM; in the experiment with SF-268 CNS, 3370 nM; in the experiment on HL-60(TB) leukemia, 3010 nM.

Consider `CN(C)c1ccc2[nH]c3c(C(N)=O)cc(=O)c(=O)c=3oc2c1`, for which the GI50 in the experiment on HT29 colon is 3660 nM; in the experiment on SF-295 CNS, 3220 nM; in the experiment with A498 renal, 2680 nM; in the experiment on TK-10 renal, 3730 nM; in the experiment on SK-MEL-2 melanoma, 1870 nM; with CAKI-1 renal, 3480 nM. Besides, the GI50 is 2340 nM with SNB-19 CNS, 1640 nM in the experiment with MCF7 breast, 3040 nM with SF-268 CNS and 668 nM in the experiment on HL-60(TB) leukemia. Further, the TGI was above 100000 nM with HT29 colon; above 100000 nM in the experiment on SF-295 CNS; 9500 nM with A498 renal; above 100000 nM in the experiment on TK-10 renal; 5340 nM with SK-MEL-2 melanoma; above 100000 nM in the experiment with CAKI-1 renal. Also, the TGI in the experiment with SNB-19 CNS was 9810 nM; in the experiment with MCF7 breast it was 8640 nM; in the experiment with SF-268 CNS, above 100000 nM; in the experiment on HL-60(TB) leukemia it was 4040 nM.

By GI50 is commonly meant the concentration giving 50% growth inhibition. For orientation: TGI means the concentration giving total growth inhibition. Read a high TGI as lower sensitivity of the cells.
